Experiments:
[1] = target: T1, S1P4 (Homo sapiens, UniProt O95977); experiment: S1P4 antagonist test, Tango S1P4 (EDG6)-bla U-2 OS cells; format: cell-based; conditions: S1P4 TANGO U-2 OS cell line
T1 construct: Tango fusion partner (protease site + GAL4-VP16 transcription factor); expressed in transfected cells; host or cells: Tango S1P4 (EDG6)-bla U-2 OS cells
T1 sequence (O95977 1-384): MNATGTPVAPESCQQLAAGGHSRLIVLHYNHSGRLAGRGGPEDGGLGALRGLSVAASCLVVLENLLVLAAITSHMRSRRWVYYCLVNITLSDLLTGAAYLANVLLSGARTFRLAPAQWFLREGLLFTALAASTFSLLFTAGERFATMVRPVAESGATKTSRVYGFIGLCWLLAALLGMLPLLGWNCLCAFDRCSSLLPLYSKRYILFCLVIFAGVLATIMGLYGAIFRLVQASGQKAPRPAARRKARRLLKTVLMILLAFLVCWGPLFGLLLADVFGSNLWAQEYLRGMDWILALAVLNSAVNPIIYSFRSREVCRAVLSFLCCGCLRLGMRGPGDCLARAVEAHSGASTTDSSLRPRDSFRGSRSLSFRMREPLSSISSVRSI
Description: (§1) Since AD2900 is a sphingolipid analogue with properties that resemble those of S1P, we intended to examine its ability to interact with the S1P receptors. To delineate whether AD2900 can function as an agonistic or antagonistic compound to any of the S1P receptors, we used a high-throughput screening cell-based assay, employing cell lines stably transfected with human S1P receptors 1, 2, 3, 4, or 5 [37]. In this experiment, a compound with an IC50 or EC50 value ≤10 μM for a certain S1P receptor is considered active as an antagonist or an agonist, respectively. The results illustrate that AD2900 acts as an antagonist to all S1P receptors (Table 1, Supplementary Figure 3). […] No agonist activation was evident.
(§2) The S1P1 agonist test and S1P2, S1P3, S1P4, and S1P5 agonist and antagonist tests were conducted as previously described using S1P1 CRE-bla CHO cells, S1P2 CRE-bla CHO cells, S1P3 NFAT-bla CHO cells, Tango™ S1P4 (EDG6)-bla U-2 OS cells, and Tango™ S1P5 ([…])-bla U-2 OS cells. The S1P1 antagonist assay was carried out according to the manufacturer’s instructions using a Tango™ S1P1 (EDG1)-bla U-2 OS Cell-Based Assay (Invitrogen, NY, USA).

[2] = target: T2, S1P3 (Homo sapiens, UniProt Q99500); experiment: S1P3 antagonist test, S1P3 NFAT-bla CHO cells; format: cell-based; conditions: S1P3 NFAT-BLA CHO cell line
T2 construct: expressed in transfected cells; host or cells: S1P3 NFAT-bla CHO cells
T2 sequence (Q99500 whole entry): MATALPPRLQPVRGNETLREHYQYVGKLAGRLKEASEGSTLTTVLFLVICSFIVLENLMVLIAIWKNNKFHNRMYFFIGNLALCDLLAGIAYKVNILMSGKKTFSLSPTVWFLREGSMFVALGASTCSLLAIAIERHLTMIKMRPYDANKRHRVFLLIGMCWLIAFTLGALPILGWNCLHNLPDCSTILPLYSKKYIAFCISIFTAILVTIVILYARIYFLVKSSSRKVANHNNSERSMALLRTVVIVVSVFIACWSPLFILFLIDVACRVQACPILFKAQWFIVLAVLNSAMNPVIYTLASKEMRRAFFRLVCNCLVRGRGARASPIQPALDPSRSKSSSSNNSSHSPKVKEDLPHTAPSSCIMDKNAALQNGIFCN
Description: as §1, §2

[3] = target: T3, S1P2 (Homo sapiens, UniProt O95136); experiment: S1P2 agonist test, S1P2 CRE-bla CHO cells; format: cell-based; conditions: S1P2 CRE-BLA CHO cell line
T3 construct: expressed in transfected cells; host or cells: S1P2 CRE-bla CHO cells
T3 sequence (O95136 whole entry): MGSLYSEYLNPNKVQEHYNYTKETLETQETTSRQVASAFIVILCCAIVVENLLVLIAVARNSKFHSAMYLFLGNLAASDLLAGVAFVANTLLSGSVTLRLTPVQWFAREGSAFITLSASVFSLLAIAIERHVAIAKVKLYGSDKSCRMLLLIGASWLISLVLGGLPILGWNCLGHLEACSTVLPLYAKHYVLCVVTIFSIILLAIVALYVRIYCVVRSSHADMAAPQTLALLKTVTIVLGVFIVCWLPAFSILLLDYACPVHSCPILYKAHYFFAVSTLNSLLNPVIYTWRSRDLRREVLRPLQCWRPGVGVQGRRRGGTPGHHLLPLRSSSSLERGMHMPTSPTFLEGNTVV
Description: as §1, §2

[4] = tested on: non-activated PBMCs; experiment: Proliferation of non-activated PBMCs, [3H] thymidine; format: cell-based, human; conditions: different concentrations
[5] = target: T1, S1P4; experiment: S1P4 agonist test, Tango S1P4 (EDG6)-bla U-2 OS cells; format: cell-based; conditions: S1P4 TANGO U-2 OS cell line
Description: as §1, §2

[6] = parameters: method as in unpublished data; conditions: previous studies; ref unpublished data; cited from earlier work
[7] = tested on: H9; experiment: XTT viability assay, H9; format: cell-based, human; conditions: 1-day treatment, compared with Jurkat (>10 μM)
Description: Figure 1 AD2900 inhibits human lymphocyte proliferation in allogeneic activation (A, B) The levels of proliferative response of human peripheral blood lymphocytes (PBMCs) after 1-day pretreatment with different concentrations of AD2900, AD2750, YZ138, YZ158, and YZ297 (A) or AD2900, FTY720, and SEW2871 (B) were tested by human allogeneic mixed lymphocyte reaction (MLR) assay, followed by a [3H] thymidine incorporation analysis. (C) Apoptosis of AD2900-treated activated PBMCs was tested by AnnexinV-propidium iodide (PI) FACS analysis following 1-day AD2900 pretreatment and MLR. All the samples were compared to the untreated PBMC control. (D) IFN-γ secretion from activated PBMCs was tested by ELISA following a 1-day AD2900 pretreatment in MLR. On the 5th day of hMLR, supernatants were collected and assayed for the level of IFN-γ. (E) Jurkat cell viability after a 1-day treatment with different concentrations of AD2900, FTY720, and SEW2871 was tested by XTT viability assay. (F) H9, CEM/C1, and Molt4 cell viability after a 1-day treatment with different concentrations of AD2900 was tested by XTT viability assay. Graphs summarize the results of at least three independent experiments. Results of Student’s t-test: *(P < 0.05, two-tailed test), ** (P < 0.01, two-tailed test), *** (P < 0.001, two-tailed test), **** (P < 0.0001, two-tailed test). […]

[8] = target: S1P1 (Homo sapiens, UniProt P21453); experiment: S1P1 agonist test, S1P1 CRE-bla CHO cells; format: cell-based; conditions: S1P1 CRE-BLA CHO cell line
S1P1, sequence (P21453 whole entry): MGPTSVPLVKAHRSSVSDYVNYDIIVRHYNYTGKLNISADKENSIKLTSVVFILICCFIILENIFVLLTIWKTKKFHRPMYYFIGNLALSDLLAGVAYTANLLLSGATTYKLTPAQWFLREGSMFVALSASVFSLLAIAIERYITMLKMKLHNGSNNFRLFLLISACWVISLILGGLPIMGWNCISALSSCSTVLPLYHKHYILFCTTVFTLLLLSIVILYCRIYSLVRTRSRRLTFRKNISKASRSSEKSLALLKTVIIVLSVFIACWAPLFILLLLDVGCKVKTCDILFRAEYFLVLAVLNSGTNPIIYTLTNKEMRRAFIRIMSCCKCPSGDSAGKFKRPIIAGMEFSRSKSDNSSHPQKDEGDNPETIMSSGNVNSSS
Description: as §1, §2

[9] = target: T4, S1P5 (Homo sapiens, UniProt Q9H228); experiment: S1P5 agonist test, Tango S1P5-bla U-2 OS cells; format: cell-based; conditions: S1P5 TANGO U-2 OS cell line
T4 construct: Tango fusion partner (protease site + GAL4-VP16 transcription factor); expressed in transfected cells; host or cells: Tango S1P5-bla U-2 OS cells
T4 sequence (Q9H228 whole entry, the tested form may be a part): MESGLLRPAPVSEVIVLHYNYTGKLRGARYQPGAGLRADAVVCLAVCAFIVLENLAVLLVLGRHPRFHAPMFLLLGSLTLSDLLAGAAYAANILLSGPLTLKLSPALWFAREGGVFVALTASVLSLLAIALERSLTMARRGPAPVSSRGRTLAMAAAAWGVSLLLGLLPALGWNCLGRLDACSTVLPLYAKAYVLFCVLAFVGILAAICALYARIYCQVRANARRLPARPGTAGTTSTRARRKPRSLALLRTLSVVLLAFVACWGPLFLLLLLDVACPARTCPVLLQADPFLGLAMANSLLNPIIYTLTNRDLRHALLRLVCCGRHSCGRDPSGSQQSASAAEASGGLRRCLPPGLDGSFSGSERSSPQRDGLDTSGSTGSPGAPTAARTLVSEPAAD
Description: as §1, §2

## CCCCCCCCCCCCCCCCNC(CO)(CO)CO [AD2900]
[1]
  IC50: 5.9 µM
[2]
  IC50: 6.2 µM
[3]
  EC50: > 50 µM
[4]
  influence on the proliferation of non-activated PBMCs: no significant differences
[5]
  EC50: > 50 µM
[6]
  lethal dose 50% (LD50): above 100 mg/kg
[7]
  cell viability, H9: reduced cell viability could be detected even at lower concentrations
[8]
  EC50: > 50 µM
[9]
  EC50: > 50 µM
